Each molecule was assayed against Epidermal growth factor receptor (Homo sapiens) (UniProt P00533) (assay: Tested for inhibitory activity against Epidermal growth factor receptor).
Chain of Epidermal growth factor receptor (Homo sapiens) (P00533 whole entry, looked up): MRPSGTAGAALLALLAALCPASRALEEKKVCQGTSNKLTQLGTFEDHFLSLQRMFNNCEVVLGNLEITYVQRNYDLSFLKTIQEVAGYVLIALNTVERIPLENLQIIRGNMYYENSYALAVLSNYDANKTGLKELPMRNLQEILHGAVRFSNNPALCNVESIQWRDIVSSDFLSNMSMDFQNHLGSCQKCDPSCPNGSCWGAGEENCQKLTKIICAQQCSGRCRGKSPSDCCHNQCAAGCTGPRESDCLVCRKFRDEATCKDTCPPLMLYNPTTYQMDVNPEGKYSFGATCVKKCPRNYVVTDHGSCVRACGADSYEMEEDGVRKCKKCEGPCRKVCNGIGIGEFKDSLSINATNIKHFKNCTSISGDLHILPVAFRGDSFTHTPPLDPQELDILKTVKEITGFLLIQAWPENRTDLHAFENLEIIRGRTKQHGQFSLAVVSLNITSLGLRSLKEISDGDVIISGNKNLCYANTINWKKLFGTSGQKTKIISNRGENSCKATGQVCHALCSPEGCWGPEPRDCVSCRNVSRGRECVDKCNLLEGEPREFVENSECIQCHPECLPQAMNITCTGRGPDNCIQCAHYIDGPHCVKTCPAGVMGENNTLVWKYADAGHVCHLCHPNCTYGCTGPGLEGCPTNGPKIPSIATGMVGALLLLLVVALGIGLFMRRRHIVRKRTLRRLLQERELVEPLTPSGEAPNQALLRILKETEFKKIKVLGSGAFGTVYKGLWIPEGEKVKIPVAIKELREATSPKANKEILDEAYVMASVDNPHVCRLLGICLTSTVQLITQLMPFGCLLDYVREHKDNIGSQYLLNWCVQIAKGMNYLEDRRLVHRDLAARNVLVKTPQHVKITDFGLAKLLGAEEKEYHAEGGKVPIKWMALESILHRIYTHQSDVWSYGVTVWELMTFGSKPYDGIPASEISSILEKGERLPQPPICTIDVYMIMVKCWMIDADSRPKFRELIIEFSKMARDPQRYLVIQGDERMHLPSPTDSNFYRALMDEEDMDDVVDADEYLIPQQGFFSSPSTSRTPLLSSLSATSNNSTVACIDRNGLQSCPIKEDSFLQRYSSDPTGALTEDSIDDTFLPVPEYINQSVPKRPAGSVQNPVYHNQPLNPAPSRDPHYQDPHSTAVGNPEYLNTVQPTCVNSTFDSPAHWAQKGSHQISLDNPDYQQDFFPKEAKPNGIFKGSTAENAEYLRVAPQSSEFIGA

Point of comparison: `CN(C)C(=O)CN1CCC(n2cc(-c3cccc(O)c3)c3c(N)ncnc32)CC1` [2-{4-[4-Amino-5-(3-hydroxy-phenyl)-pyrrolo[2,3-d]pyrimidin-7-yl]-piperidin-1-yl}-N,N-dimethyl-acetamide], IC50 400 nM. Against it:
- COCCNCCN1CCC(n2cc(-c3cccc(OC)c3)c3c(N)ncnc32)CC1 [7-{1-[2-(2-Methoxy-ethylamino)-ethyl]-piperidin-4-yl}-5-(3-methoxy-phenyl)-7H-pyrrolo[2,3-d]pyrimidin-4-ylamine] — 1.6-fold higher, 620 nM
- COc1cccc(-c2cn(C3CCN(CCN(C)CCO)CC3)c3ncnc(N)c23)c1 [2-((2-(4-(4-amino-5-(3-methoxyphenyl)-7H-pyrrolo[2,3-d]pyrimidin-7-yl)piperidin-1-yl)ethyl)(methyl)amino)ethanol] — within 1.5-fold, 340 nM
- Nc1ncnc2c1c(-c1cccc(O)c1)cn2C1CCN(CCO)CC1 [3-(4-amino-7-(1-(2-hydroxyethyl)piperidin-4-yl)-7H-pyrrolo[2,3-d]pyrimidin-5-yl)phenol] — within 1.5-fold, 360 nM
- COC(=O)CN1CCC(n2cc(-c3cccc(O)c3)c3c(N)ncnc32)CC1 [{4-[4-Amino-5-(3-hydroxy-phenyl)-pyrrolo[2,3-d]pyrimidin-7-yl]-piperidin-1-yl}-acetic acid methyl ester] — within 1.5-fold, 290 nM

Source: BindingDB's records for doi:10.1016/s0960-894x(01)00080-4 (Novartis Pharma Research, 2001)
